From PubChem BioAssay (NCI)
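Dose response: 5 concentrations. Exposure: 48 h. Format: 96-well plates. Endpoint: linear interpolation; highest concentration if not reached. The concentration for 50% growth inhibition is given as GI50. TGI denotes the concentration required for complete inhibition of growth.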

Tests used:
Test in all cases: NCI-60 cell line screen, 48 h
CCRF-CEM leukemia = test system: CCRF-CEM leukemia
RPMI-8226 leukemia = test system: RPMI-8226 leukemia
MDA-MB-231 breast = test system: MDA-MB-231 breast
SF-539 CNS = test system: SF-539 CNS
NCI-H522 lung = test system: NCI-H522 lung
MDA-MB-435 = test system: MDA-MB-435
HT29 colon = test system: HT29 colon
U251 CNS = test system: U251 CNS
LOX IMVI melanoma = test system: LOX IMVI melanoma
SNB-19 CNS = test system: SNB-19 CNS
SW-620 colon = test system: SW-620 colon
SF-295 CNS = test system: SF-295 CNS
MOLT-4 leukemia = test system: MOLT-4 leukemia
HL-60(TB) leukemia = test system: HL-60(TB) leukemia
SK-OV-3 ovarian = test system: SK-OV-3 ovarian
SK-MEL-5 melanoma = test system: SK-MEL-5 melanoma
SN12C renal = test system: SN12C renal
NCI-H226 lung = test system: NCI-H226 lung
HOP-62 NSCLC = test system: HOP-62 NSCLC
786-0 renal = test system: 786-0 renal
NCI/ADR-RES ovarian = test system: NCI/ADR-RES ovarian
KM12 colon = test system: KM12 colon
HCC-2998 colon = test system: HCC-2998 colon
SK-MEL-28 melanoma = test system: SK-MEL-28 melanoma
HCT-15 colon = test system: HCT-15 colon
NCI-H460 lung = test system: NCI-H460 lung
COLO 205 colon = test system: COLO 205 colon
EKVX NSCLC = test system: EKVX NSCLC

SMILES: Cc1ccc(-n2c(-c3cc4c([nH]c5ccccc54)c(-c4cccc(O)c4)n3)n[nH]c2=S)cc1
- TGI (CCRF-CEM leukemia): 11.6 µM
- GI50 (RPMI-8226 leukemia): 808 nM
- TGI (RPMI-8226 leukemia): 3.76 µM
- GI50 (MDA-MB-231 breast): 1350 nM
- TGI (MDA-MB-231 breast): 6.35 µM
- GI50 (SF-539 CNS): 306 nM
- TGI (SF-539 CNS): 1060 nM
- GI50 (NCI-H522 lung): 861 nM
- TGI (NCI-H522 lung): 5.27 µM
- GI50 (MDA-MB-435): 649 nM
- TGI (MDA-MB-435): 2750 nM
- GI50 (HT29 colon): 1360 nM
- TGI (HT29 colon): 3.68 µM
- GI50 (U251 CNS): 371 nM
- TGI (U251 CNS): 2220 nM
- GI50 (LOX IMVI melanoma): 461 nM
- TGI (LOX IMVI melanoma): 1970 nM
- GI50 (SNB-19 CNS): 403 nM
- TGI (SNB-19 CNS): 3.7 µM
- GI50 (SW-620 colon): 406 nM
- TGI (SW-620 colon): 11.8 µM
- GI50 (SF-295 CNS): 1110 nM
- TGI (SF-295 CNS): 3.12 µM
- GI50 (MOLT-4 leukemia): 908 nM
- TGI (MOLT-4 leukemia): 4.76 µM
- GI50 (HL-60(TB) leukemia): 1080 nM
- TGI (HL-60(TB) leukemia): 3.43 µM
- GI50 (SK-OV-3 ovarian): 1180 nM
- TGI (SK-OV-3 ovarian): 4.44 µM
- GI50 (SK-MEL-5 melanoma): 1320 nM
- TGI (SK-MEL-5 melanoma): 3.31 µM
- GI50 (SN12C renal): 936 nM
- TGI (SN12C renal): 6.91 µM
- GI50 (NCI-H226 lung): 658 nM
- TGI (NCI-H226 lung): 3.94 µM
- GI50 (HOP-62 NSCLC): 1240 nM
- TGI (HOP-62 NSCLC): 4.87 µM
- GI50 (786-0 renal): 2600 nM
- TGI (786-0 renal): 12.8 µM
- GI50 (NCI/ADR-RES ovarian): 4.14 µM
- TGI (NCI/ADR-RES ovarian): 24.1 µM
- GI50 (KM12 colon): 1150 nM
- TGI (KM12 colon): 5.1 µM
- GI50 (HCC-2998 colon): 268 nM
- TGI (HCC-2998 colon): 838 nM
- GI50 (SK-MEL-28 melanoma): 628 nM
- TGI (SK-MEL-28 melanoma): 4.22 µM
- GI50 (HCT-15 colon): 610 nM
- TGI (HCT-15 colon): 6.94 µM
- GI50 (NCI-H460 lung): 393 nM
- TGI (NCI-H460 lung): 10.2 µM
- GI50 (COLO 205 colon): 2460 nM
- TGI (COLO 205 colon): 8.14 µM
- GI50 (EKVX NSCLC): 1950 nM
- TGI (EKVX NSCLC): 11.1 µM
